Measured values as given in patent publication US20240018153A1, “BENZENESULFONAMIDE DERIVATIVES AND USES THEREOF” (2692372 ONTARIO, INC., priority 2020, published 2024).

Assays:
EGFR = EGFR (Homo sapiens (Human), UniProt P00533); assay: HTRF KinEASE-TK kinase assay, EGFR; format: biochemical; settings: 3 h preincubation; for remaining activity at 1 µM: 1 μM compound, read-out: % EGFR Remaining activity vs DMSO (1 μM, 3 h); for remaining activity at 10 µM: 10 μM compound, read-out: % EGFR Remaining activity vs DMSO (10 μM, 3 h)
Procedure, shortened: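 Buffer contained 5 mM MgCl2, 2 mM MnCl2 and 1 mM TCEP; compounds at two final concentrations, 1 and 10 uM, with 0.5% DMSO, pre-incubated with the enzyme.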

JAK3 = JAK3 (Homo sapiens (Human), UniProt P52333); assay: HTRF KinEASE-TK kinase assay, JAK3; format: biochemical; settings: for remaining activity at 1 µM: read-out: % JAK3 Remaining activity vs DMSO (1 μM, 3 h); for remaining activity at 10 µM: read-out: % JAK3 Remaining activity vs DMSO (10 μM, 3 h)
Procedure, shortened: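 HTRF read-out: the Em665/Em620 ratio, measured 60 min after stopping with EDTA, 31.25 nM SA-XL665 and 100-fold diluted Eu-antibody, was taken as phosphorylated substrate. Beforehand, 0.21 nM JAK3 (0.0133 ng/µl) sat with compound for 3 h at room temperature, then biotinylated substrate plus ATP started the reaction.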

RIPK2 = RIPK2 (Homo sapiens (Human), UniProt O43353); assay: In vitro RIPK2 inhibition; format: biochemical; settings: for remaining activity at 1 µM: read-out: % RIPK2 Remaining activity vs DMSO (1 μM, 3 h); for remaining activity at 10 µM: read-out: % RIPK2 Remaining activity vs DMSO (10 μM, 3 h)
BTK [1] = molecular target: T1, BTK (Homo sapiens (Human), UniProt Q06187); assay: Ramos RA1 cell lysis and immunoassay, phospho-BTK (Y223) inhibition; format: cell-based; design: key: X: BTK bound and autophosphoration of BTK inhibited in cells; settings: RAMOS cells, compound concentration 1 μM
Procedure, shortened: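 Ramos RA1 cells treated with compound or DMSO for 24 h at 37° C., lysed in RIPA, analysed by Simple Western. Total BTK normalised to β-actin, pBTK (Y223) to total-protein reagent; both expressed relative to DMSO control.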

BTK [2] = molecular target: T1, BTK; assay: HTRF KinEASE-TK kinase assay, BTK; format: biochemical; settings: 3 h preincubation; for remaining activity at 1 µM: 1 μM compound, read-out: % BTK Remaining activity vs DMSO (1 μM, 3 h); for remaining activity at 10 µM: 10 μM compound, read-out: % BTK Remaining activity vs DMSO (10 μM, 3 h); for IC50: dose response, read-out: BTK Inhibition IC50
Procedure, shortened: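 Read-out was the 665 nm to 620 nm ratio, taken 60 min after detection, reflecting phosphorylated biotinylated substrate. Before this, BTK reacted 45 min with substrate and ATP in kinase buffer supplemented with MnCl2 (10 mM), MgCl2 (5 mM), ATPγS (1 uM) and TCEP (1 mM).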

BMX = BMX (Homo sapiens (Human), UniProt P51813); assay: HTRF KinEASE-TK kinase assay, BMX; format: biochemical; settings: for remaining activity at 1 µM: 1 uM compound; for remaining activity at 1 µM / remaining activity at 10 µM: 3 h preincubation; for remaining activity at 10 µM: 10 uM compound
Procedure, shortened: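 Phosphorylation was quantified by HTRF KinEASE-TK as the 665/620 nm ratio, read 60 min after EDTA stop with SA-XL665 (31.25 nM) and europium antibody. Before the reaction, 3.03 nM BMX was preincubated with compound for 3 hours at room temperature, and the reaction was started with biotinylated substrate plus ATP.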

FGFR4 = FGFR4 (Homo sapiens (Human), UniProt P22455); assay: HTRF KinEASE-TK kinase assay, FGFR4; format: biochemical; settings: for remaining activity at 1 µM: read-out: % FGFR4 Remaining activity vs DMSO (1 μM, 3 h); for remaining activity at 10 µM: read-out: % FGFR4 Remaining activity vs DMSO (10 μM, 3 h)
Procedure, shortened: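 HTRF ratio (Em 665/620 nm) measured 60 min after EDTA stop with SA-XL665 (31.25 nM) and europium antibody reflects phosphorylated biotinylated substrate. Before substrate/ATP addition, 5.12 nM (0.333 ng/ul) FGFR4 sat with compound 3 h at room temperature.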

Sequence of JAK3 (P52333 781-1124): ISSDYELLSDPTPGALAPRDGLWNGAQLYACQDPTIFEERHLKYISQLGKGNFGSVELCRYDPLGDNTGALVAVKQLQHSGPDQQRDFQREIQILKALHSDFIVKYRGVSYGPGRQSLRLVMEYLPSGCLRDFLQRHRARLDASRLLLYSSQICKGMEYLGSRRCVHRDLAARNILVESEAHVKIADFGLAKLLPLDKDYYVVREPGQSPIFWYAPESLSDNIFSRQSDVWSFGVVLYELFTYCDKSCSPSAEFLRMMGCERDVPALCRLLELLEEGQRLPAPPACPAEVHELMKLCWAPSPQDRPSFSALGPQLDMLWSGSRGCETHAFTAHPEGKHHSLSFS
Sequence of RIPK2 (O43353 whole entry, species assumed): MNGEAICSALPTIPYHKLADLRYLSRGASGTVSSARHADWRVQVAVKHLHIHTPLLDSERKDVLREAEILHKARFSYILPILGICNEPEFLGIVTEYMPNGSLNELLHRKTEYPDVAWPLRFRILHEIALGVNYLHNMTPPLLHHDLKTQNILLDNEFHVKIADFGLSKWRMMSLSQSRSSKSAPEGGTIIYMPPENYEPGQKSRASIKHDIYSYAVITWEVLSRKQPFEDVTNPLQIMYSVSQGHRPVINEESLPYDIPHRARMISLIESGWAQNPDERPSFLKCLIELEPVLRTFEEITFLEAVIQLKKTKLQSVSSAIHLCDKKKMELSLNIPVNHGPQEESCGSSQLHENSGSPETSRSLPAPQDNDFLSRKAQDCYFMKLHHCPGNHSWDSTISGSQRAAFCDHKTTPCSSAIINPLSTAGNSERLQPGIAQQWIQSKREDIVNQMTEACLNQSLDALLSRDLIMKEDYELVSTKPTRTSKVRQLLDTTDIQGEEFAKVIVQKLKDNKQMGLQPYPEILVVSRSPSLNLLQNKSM
Sequence of FGFR4 (P22455 22-802): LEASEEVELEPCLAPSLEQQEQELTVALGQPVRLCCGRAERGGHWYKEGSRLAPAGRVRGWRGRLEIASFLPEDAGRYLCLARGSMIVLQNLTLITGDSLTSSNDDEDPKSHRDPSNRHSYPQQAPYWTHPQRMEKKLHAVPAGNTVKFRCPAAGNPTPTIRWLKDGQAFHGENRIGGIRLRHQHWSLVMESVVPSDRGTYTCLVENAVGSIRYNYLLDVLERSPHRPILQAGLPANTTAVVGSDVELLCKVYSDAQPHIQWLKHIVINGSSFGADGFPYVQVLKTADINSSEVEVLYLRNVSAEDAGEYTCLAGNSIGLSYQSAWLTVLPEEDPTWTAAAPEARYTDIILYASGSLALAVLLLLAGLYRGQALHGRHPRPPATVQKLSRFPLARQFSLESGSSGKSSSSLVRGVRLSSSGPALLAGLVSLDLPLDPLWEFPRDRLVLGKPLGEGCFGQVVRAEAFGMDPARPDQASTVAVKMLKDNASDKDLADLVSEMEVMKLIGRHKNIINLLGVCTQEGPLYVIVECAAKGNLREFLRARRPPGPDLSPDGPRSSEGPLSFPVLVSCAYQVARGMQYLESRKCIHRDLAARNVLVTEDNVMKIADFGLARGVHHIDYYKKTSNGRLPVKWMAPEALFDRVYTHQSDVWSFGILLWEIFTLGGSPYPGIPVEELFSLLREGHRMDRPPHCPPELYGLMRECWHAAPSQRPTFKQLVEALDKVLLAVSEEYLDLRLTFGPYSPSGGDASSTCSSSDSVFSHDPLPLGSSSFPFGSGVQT
Sequence of BMX (P51813 whole entry): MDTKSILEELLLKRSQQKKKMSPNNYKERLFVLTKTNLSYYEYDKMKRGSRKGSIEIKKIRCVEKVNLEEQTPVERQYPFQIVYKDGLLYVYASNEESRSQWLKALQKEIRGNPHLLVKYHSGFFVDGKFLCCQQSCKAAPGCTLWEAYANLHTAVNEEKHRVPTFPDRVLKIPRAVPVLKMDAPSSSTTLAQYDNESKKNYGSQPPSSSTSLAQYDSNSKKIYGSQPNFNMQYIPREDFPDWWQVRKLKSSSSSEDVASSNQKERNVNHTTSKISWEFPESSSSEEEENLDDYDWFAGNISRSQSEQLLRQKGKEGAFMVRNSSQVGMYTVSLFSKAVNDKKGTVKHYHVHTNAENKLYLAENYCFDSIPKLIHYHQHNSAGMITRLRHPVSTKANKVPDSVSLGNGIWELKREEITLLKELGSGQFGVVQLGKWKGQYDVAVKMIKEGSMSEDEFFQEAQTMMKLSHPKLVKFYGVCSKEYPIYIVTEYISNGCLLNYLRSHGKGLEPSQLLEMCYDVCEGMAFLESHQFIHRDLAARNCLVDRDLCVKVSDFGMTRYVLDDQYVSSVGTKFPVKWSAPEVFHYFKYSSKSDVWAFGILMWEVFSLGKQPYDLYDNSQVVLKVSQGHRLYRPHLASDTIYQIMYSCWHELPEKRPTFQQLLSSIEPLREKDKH
Sequence of EGFR (P00533 25-1210): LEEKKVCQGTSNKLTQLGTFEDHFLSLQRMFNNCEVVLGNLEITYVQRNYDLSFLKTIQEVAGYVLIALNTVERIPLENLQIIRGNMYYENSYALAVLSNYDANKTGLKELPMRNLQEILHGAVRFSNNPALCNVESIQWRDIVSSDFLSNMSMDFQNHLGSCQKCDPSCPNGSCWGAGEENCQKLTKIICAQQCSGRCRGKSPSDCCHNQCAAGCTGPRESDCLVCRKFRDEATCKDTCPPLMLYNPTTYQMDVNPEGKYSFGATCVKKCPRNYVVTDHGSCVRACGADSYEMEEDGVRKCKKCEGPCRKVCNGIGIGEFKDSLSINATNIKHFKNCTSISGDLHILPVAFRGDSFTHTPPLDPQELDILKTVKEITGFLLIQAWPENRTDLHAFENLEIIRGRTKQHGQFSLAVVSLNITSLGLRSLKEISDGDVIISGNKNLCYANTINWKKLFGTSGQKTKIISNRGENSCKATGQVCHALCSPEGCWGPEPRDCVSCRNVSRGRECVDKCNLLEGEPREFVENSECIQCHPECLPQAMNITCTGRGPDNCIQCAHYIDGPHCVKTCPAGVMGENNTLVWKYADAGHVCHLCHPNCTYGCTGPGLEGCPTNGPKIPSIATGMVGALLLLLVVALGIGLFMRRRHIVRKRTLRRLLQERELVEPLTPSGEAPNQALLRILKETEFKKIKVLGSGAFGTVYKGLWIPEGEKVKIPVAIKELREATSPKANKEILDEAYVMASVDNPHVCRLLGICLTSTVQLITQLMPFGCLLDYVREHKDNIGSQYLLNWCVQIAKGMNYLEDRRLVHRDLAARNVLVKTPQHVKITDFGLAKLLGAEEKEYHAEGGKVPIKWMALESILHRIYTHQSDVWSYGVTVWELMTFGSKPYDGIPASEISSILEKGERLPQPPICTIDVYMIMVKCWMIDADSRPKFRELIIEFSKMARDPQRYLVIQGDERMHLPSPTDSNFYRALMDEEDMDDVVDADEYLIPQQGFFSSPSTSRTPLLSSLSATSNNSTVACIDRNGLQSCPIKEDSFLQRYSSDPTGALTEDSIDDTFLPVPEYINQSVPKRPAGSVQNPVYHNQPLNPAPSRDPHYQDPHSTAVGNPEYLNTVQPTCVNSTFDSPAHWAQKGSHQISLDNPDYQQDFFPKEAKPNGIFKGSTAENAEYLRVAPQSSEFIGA
T1 sequence (Q06187 whole entry): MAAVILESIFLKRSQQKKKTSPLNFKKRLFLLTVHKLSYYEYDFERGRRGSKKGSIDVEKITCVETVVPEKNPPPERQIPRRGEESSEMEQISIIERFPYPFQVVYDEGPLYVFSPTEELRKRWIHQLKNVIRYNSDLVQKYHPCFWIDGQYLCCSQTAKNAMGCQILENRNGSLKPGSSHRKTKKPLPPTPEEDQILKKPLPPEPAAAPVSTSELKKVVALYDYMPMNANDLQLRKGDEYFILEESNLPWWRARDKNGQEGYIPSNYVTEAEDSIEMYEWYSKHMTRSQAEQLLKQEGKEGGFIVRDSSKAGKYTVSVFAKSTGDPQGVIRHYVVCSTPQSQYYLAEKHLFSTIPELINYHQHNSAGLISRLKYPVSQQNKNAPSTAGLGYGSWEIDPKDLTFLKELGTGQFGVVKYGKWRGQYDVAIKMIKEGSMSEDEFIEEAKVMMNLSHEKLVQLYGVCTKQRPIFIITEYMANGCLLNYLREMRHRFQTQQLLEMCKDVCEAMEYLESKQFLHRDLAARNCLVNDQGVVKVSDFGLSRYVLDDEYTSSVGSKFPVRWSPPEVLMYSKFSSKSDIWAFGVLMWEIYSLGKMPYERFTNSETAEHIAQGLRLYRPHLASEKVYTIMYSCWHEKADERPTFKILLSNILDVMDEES

| remaining activity at 1 µM (EGFR) | remaining activity at 10 µM (EGFR) | remaining activity at 1 µM (JAK3) | remaining activity at 10 µM (JAK3) | remaining activity at 1 µM (RIPK2) | remaining activity at 10 µM (RIPK2) | pBTK inhibition (RAMOS, 24 h) (BTK [1]) | remaining activity at 1 µM (BTK [2]) | remaining activity at 10 µM (BTK [2]) | IC50 (BTK [2]) | remaining activity at 1 µM (BMX) | remaining activity at 10 µM (BMX) | remaining activity at 1 µM (FGFR4) | remaining activity at 10 µM (FGFR4) | IC50 (EGFR; dose response, read-out: EGFR Inhibition IC50) | IC50 (BMX; dose response) | Compound |
| --- | --- | --- | --- | --- | --- | --- | --- | --- | --- | --- | --- | --- | --- | --- | --- | --- |
| > 90% | > 90% | > 90% | 50 to 90% | > 90% | > 90% | X | < 50% | < 50% | < 1000 nM | < 50% | < 50% | > 90% | < 50% | – | – | C[S+]([O-])c1c(F)c(F)c(F)c(F)c1C(=O)N1CCC[C@@H](n2nc(-c3ccc(Oc4ccccc4)cc3)c3c(N)ncnc32)C1 (stereo partly drawn) [Compound I-36, ((R)-3-(4-amino-3-(4-phenoxyphenyl)-1H-pyrazolo[3,4-d]pyrimidin-1-yl)piperidin-1-yl)(2,3,4,5-tetrafluoro-6-(methylsulfinyl)phenyl)methanone] |
| < 50% | < 50% | > 90% | < 50% | > 90% | > 90% | X | < 50% | < 50% | < 1000 nM | < 50% | < 50% | < 50% | < 50% | > 1000 nM | < 1000 nM | CS(=O)(=O)c1c(F)c(F)c(F)c(F)c1C(=O)NCCn1nc(-c2ccc(Oc3ccccc3)cc2)c2c(N)ncnc21 [Compound I-38, N-(2-(4-amino-3-(4-phenoxyphenyl)-1H-pyrazolo[3,4-d]pyrimidin-1-yl)ethyl)-2,3,4,5-tetrafluoro-6-(methylsulfonyl)benzamide] |
| < 50% | < 50% | > 90% | 50 to 90% | > 90% | > 90% | X | < 50% | < 50% | < 1000 nM | < 50% | < 50% | 50 to 90% | < 50% | – | – | CN(C)S(=O)(=O)c1c(F)c(F)c(F)c(F)c1C(=O)NCCn1nc(-c2ccc(Oc3ccccc3)cc2)c2c(N)ncnc21 [Compound I-40, N-(2-(4-amino-3-(4-phenoxyphenyl)-1H-pyrazolo[3,4-d]pyrimidin-1-yl)ethyl)-2-(N,N-dimethylsulfamoyl)-3,4,5,6-tetrafluorobenzamide] |
